From ChEMBL document CHEMBL1145689, “Phospholipase A 2 Inhibitors from an Erythrina Species from Samoa” (J Nat Prod, 1997)

What follows are molecules tested against Phospholipase A2 (Homo sapiens, UniProt P04054) (assay: Inhibition of PLA2 in fMLP and A23187 ionophore-stimulated human HL60 cells assessed as effect on [3H]arachidonic acid release). Conditions: hl-60.
Format: cell-based

Phospholipase A2, sequence (P04054 whole entry): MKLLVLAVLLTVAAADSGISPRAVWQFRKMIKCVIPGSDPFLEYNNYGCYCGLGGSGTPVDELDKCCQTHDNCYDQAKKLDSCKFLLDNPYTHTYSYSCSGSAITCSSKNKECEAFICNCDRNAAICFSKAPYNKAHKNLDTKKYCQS

Which IC50 does the source give for `CC(C)=CCc1cc2c(cc1O)OCc1c-2oc2c(CC=C(C)C)c(O)ccc12` [ERYCRYSTAGALLIN] here?
The IC50 was 3 µM.

For `CC(C)=CCc1cc([C@@H]2CC(=O)c3c(O)cc(O)cc3O2)cc(CC=C(C)C)c1O` [ABYSSINONE V], which IC50 is on record?
The IC50 was 6 µM.

For `CC(C)=CCc1cc(C2CC(=O)c3c(cc(O)c(CC=C(C)C)c3O)O2)cc(CC=C(C)C)c1O` (stereo not drawn), which IC50 is on record?
The IC50 was 10 µM.
